From publication PMC2873968, “Novel protein kinase D inhibitors cause potent arrest in prostate cancer cell growth and motility” (BMC Chemical Biology, 2010)

Assays:
PC3 cells = test: Wound healing assay; assay type: cell-based; conditions: 25 μM, 24 h
Description: (§1) Wound-induced migration was measured as described previously. Briefly, PC3 or DU145 cells were grown to confluence in 6-well plates. Migration was initiated by scraping the monolayer with a pipette tip, creating a "wound." The indicated concentration of compound was added to the media, and the wound was imaged immediately under an inverted phase-contrast microscope with 10× objective. After 24 h, cells were fixed in methanol and stained with 1% crystal violet, and a final image was taken. The wound gap was measured, and % wound healing was calculated. The average % wound healing was determined based on at least 9 measurements of the wound gap.
(§2) The analogs inhibited wound healing in prostate cancer cells. DU145 cells (A) or PC3 cells (B) were grown to confluence in 6-well plates. The monolayer was wounded and imaged immediately. Cells were then treated with either vehicle (DMSO) or analogs at indicated concentration for 24 hours. Cells were then fixed and stained with 0.5% crystal violet. Percentage wound closure was calculated as an average of 9 determinations for each concentration/compound as described under "Methods." Data shown are the mean ± S.E.M. for three independent experiments. Statistical significance versus the DMSO control was determined by unpaired t-test in GraphPad Prism V. ns, not statistically significant; *, p < 0.05; **, p < 0.01; ***, p < 0.001.

DU145 cells = test: Wound healing assay; assay type: cell-based; conditions: 25 μM, 24 h
Description: as §1, §2

PKD2 = target: T1, PKD2 (Homo sapiens, UniProt Q9BZL6); test: In vitro radiometric PKD kinase assay; assay type: biochemical; design: purchased SignalChem; conditions: for IC50: radiometric kinase assay, mean ± S.E.M.
T1 sequence (Q9BZL6 1-878): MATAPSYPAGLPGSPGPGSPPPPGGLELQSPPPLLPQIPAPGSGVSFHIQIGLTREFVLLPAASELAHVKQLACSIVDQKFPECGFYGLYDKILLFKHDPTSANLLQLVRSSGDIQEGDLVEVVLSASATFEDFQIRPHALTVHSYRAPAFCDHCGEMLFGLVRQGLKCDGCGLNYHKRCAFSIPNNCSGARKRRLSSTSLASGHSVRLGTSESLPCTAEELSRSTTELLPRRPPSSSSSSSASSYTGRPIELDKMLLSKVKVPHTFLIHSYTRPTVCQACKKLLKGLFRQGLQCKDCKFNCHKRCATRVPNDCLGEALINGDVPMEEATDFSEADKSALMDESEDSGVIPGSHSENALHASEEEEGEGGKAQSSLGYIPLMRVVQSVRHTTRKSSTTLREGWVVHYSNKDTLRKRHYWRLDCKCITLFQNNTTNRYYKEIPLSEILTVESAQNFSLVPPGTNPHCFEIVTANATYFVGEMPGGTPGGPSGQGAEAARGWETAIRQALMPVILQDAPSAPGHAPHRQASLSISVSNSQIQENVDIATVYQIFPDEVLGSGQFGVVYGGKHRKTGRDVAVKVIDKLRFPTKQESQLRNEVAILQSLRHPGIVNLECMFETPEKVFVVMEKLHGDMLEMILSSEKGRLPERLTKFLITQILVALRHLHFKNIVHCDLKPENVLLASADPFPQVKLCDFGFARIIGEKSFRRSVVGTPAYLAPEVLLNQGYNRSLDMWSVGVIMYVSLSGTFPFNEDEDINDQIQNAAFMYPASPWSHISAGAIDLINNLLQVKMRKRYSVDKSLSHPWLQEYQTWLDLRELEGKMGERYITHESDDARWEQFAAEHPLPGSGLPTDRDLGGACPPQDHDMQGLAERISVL
Description: In vitro radiometric kinase assays were conducted as previously described. Briefly, 1 μCi [γ-^32P] ATP (PerkinElmer Life Sciences), 70 μM ATP, 50 ng purified recombinant human PKD1 (Biomol International, Plymouth Meeting, PA), PKD2 (SignalChem, Richmond, BC, Canada), or CAMKIIα (Enzo Life Sciences) or 75 ng PKD3 (Enzo Life Sciences), and 2.5 μg syntide-2 (Sigma) in 50 μl kinase buffer containing 50 mM Tris-HCl, pH 7.5, 4 mM MgCl2, and 10 mM β-mercaptoethanol. For the CAMK assay, 0.5 mM CaCl2 and 30 ng/μl calmodulin were pre-incubated for 10 min on ice, and then added to each reaction mixture. The reaction was incubated at 30°C for 10 min, and 25 μl of the reaction mixture was then spotted onto Whatman P81 filter paper (Whatman Inc., Clifton, NJ). The filter papers were washed 3 times in 0.5% phosphoric acid, air-dried, and counted using a Beckman LS6500 multipurpose scintillation counter (Beckman).
The in vitro inhibitory activities of the novel compounds toward PKD were determined using radiometric PKD kinase activity assays. Recombinant human PKD1, -2, or -3 was incubated with the substrate, syntide-2, in the presence of 10 different concentrations of each compound. IC50 values were determined for each compound by plotting percent PKD activity versus compound concentration for each point.

Compound	wound closure (PC3 cells)	wound closure (DU145 cells)	fold stronger inhibition of PKD2 than CID755673 (PKD2)	IC50 (PKD2)	fold reduction of potency for PKD2 (PKD2; versus kb-NB142-70)
O=C1NCCSc2c1sc1ccc(O)cc21 [kb-NB142-70]	25-35%	25-35%	about 4 fold	58.7 ± 4.2 nM	
O=C1NCCSc2c1sc1ccc(O)c(I)c21 [kb-NB165-31]	55-60%	55-60%		163 ± 20.5 nM	
O=C1NCCCSc2c1sc1ccc(O)cc21 [kb-NB165-92]				101 ± 10.9 nM	2-4 fold
COc1ccc2sc3c(c2c1)SCCNC3=O [kb-NB165-09]	25-35%	25-35%		142 ± 7.4 nM	
COc1ccc2sc3c(c2c1)SCCCNC3=O [kb-NB184-02]				463 ± 38.2 nM	
